According to patent publication US6472416B1, “Sulfonylphenylpyrazole compounds useful as COX-2 inhibitors” (Abbott Laboratories, priority 1999, dated 2002):

melting point [°C]	Structure (SMILES)
128 to 131	CS(=O)(=O)c1ccc(-c2nn3c(C4C5CC6CC(C5)CC4C6)coc3c2-c2ccc(F)cc2)cc1 (centres unmarked) [Example 39, 3-(2-Adamantyl)-7-(4-fluorophenyl)-6-(4-(methylsulphonyl)phenyl)pyrazolo[5,1-b][1,3]oxazole]
181 to 182	CC(C)(C)c1coc2c(-c3ccc(F)cc3)c(-c3ccc(S(C)(=O)=O)cc3)nn12 [Example 40, 3-(Tert-butyl)-7-(4-fluorophenyl)-6-(4-(methylsulphonyl)phenyl)pyrazolo[5,1-b][1,3]oxazole]
222 to 223	Cc1oc2c(-c3ccc(F)cc3)c(-c3ccc(S(C)(=O)=O)cc3)nn2c1-c1ccc(Cl)s1 [Example 45, 3-(5-Chloro-2-thienyl)-7-(4-fluorophenyl)-2-methyl-6-(4-(methylsulphonyl)phenyl)pyrazolo[5,1-b][1,3]oxazole]
158 to 160	Cc1oc2c(-c3ccc(F)cc3)c(-c3ccc(S(C)(=O)=O)cc3)nn2c1C [Example 48, 7-(4-Fluorophenyl)-6-(4-methylsulfonylphenyl)-2,3-dimethylpyrazolo[5,1-b][1,3]oxazole]
195 to 196	CS(=O)(=O)c1ccc(-c2c(-c3ccc(F)cc3)c(OCc3c(F)cccc3Cl)nn2Cc2c(F)cccc2Cl)cc1 [Example 64, 1-(2-Chloro-6-fluorobenzyl)-3-[(2-chloro-6-fluorobenzyl)oxy]-4-(4-fluorophenyl)-5-(4-(methylsulphonyl)phenyl)-1H-pyrazole]
200 to 202	CS(=O)(=O)c1ccc(-c2nn3c(-c4ccc(F)cc4)coc3c2-c2ccc(F)cc2)cc1 [Example 36B, 3,7-Bis(4-fluorophenyl)-6-(4-(methylsulphonyl)phenyl)pyrazolo[5,1-b][1,3]oxazole]
63 to 66	CCn1nc(OCC(=O)C(C)(C)C)c(-c2ccc(S(C)(=O)=O)cc2)c1-c1ccc(F)cc1 [Example 78, 1-[(1-Ethyl-5-(4-fluorophenyl)-4-(4-(methylsulphonyl)phenyl)-1H-pyrazol-3-yl)oxy]-3,3-dimethylbutan-2-one]
234 to 236	CCc1coc2c(-c3ccc(F)cc3)c(-c3ccc(S(N)(=O)=O)cc3)nn12 [Example 62, 6-(4-(aminosulphonyl)phenyl)-3-Ethyl-7-(4-fluorophenyl)pyrazolo[5,1-b][1,3]oxazole]
289 to 291	Cc1c(-c2ccc(F)cc2)oc2c(-c3ccc(S(C)(=O)=O)cc3)c(-c3ccc(F)cc3)nn12 [Example 74, 2,6-Bis(4-fluorophenyl)-3-methyl-7-(4-(methylsulphonyl)phenyl)pyrazolo[5,1-b][1,3]oxazole]
289 to 291	CS(=O)(=O)c1ccc(-c2c(-c3ccc(F)cc3)nn3c(-c4ccc(F)cc4)coc23)cc1 [Example 73, 3,6-Bis(4-fluorophenyl)-7-(4-methylsulfonylphenyl)pyrazolo[5,1-b][1,3]oxazole]
236 to 238	Cc1c(C#N)oc2c(-c3ccc(F)cc3)c(-c3ccc(S(C)(=O)=O)cc3)nn12 [Example 54, 2-Cyano-7-(4-fluorophenyl)-3-methyl-6-(4-(methylsulphonyl)phenyl)pyrazolo[5,1-b][1,3]oxazole]
197 to 199	CC=CC(=O)c1oc2c(-c3ccc(F)cc3)c(-c3ccc(S(C)(=O)=O)cc3)nn2c1C [Example 58, 1-[7-(4-Fluorophenyl)-3-methyl-6-(4-(methylsulphonyl)phenyl)pyrazolo[5,1-b][1,3]oxazol-2-yl]but-2-en-1-one]
167 to 168	CS(=O)(=O)c1ccc(-c2nn3c(c2-c2ccc(F)cc2)OCCCC3)cc1 [Example 2, 3-(4-Fluorophenyl)-2-(4-(methylsulphonyl)phenyl)-5,6,7,8-tetrahydropyrazolo[5,1-b][1,3]oxazepine]
231 to 232	Cc1c(C#N)oc2c(-c3ccc(F)cc3)c(-c3ccc(S(N)(=O)=O)cc3)nn12 [Example 59, 6-(4-(Aminosulphonyl)phenyl)-2-cyano-7-(4-Fluorophenyl)-3-methyl-pyrazolo[5,1-b][1,3]oxazole]
178 to 180	CS(=O)(=O)c1ccc(-c2nn3c4c(oc3c2-c2ccc(F)cc2)CSCC4)cc1 [Example 53, 3-(4-Fluorophenyl)-2-(4-methylsulfonylphenyl)-7,8-dihydro-5H-pyrazolo[5,1-b]thiopyrano[4,3-d][1,3]oxazole]
191 to 193	CS(=O)(=O)c1ccc(-c2c(OCC(=O)c3ccc(F)cc3)nn(CC(=O)c3ccc(F)cc3)c2-c2ccc(F)cc2)cc1 [Example 75, 2-[5-(4-Fluorophenyl)-4-(4-(methylsulphonyl)phenyl)-3-(2-oxo-2-(4-fluorophenyl)ethoxy)-1H-pyrazol-1-yl]-1-(4-fluorophenyl)ethan-1-one]
184 to 185	CC(C)n1nc(OCC(=O)c2ccc(F)cc2)c(-c2ccc(F)cc2)c1-c1ccc(S(C)(=O)=O)cc1 [Example 19, 2-{[4-(4-Fluorophenyl)-5-(4-(methylsulphonyl)phenyl)-1-isopropyl-1H-pyrazol-3-yl]oxy}-1-(4-fluorophenyl)ethan-1-one]

melting point [°C]	Structure (SMILES)
203 to 204	CCOC(=O)c1oc2c(-c3ccc(F)cc3)c(-c3ccc(S(C)(=O)=O)cc3)nn2c1C [Example 51, Ethyl 7-(4-Fluorophenyl)-6-(4-methylsulfonylphenyl)-3-methylpyrazolo[5,1-b][1,3]oxazole-2-carboxylate]
202 to 205	Cc1cc(-c2coc3c(-c4ccc(F)cc4)c(-c4ccc(S(C)(=O)=O)cc4)nn23)ccc1Cl [Example 47, 3-(4-Chloro-3-methylphenyl)-7-(4-fluorophenyl)-6-(4-(methylsulphonyl)phenyl)pyrazolo[5,1-b][1,3]oxazole]
67 to 70	CS(=O)(=O)c1ccc(-c2nn3ccoc3c2-c2ccc(F)cc2)cc1 [Example 60, 7-(4-Fluorophenyl)-6-(4-(methylsulphonyl)phenyl)pyrazolo[5,1-b][1,3]oxazole]
234 to 236	Cc1oc2c(-c3ccc(F)cc3)c(-c3ccc(S(C)(=O)=O)cc3)nn2c1-c1ccccc1 [Example 41, 7-(4-Fluorophenyl)-2-methyl-6-(4-(methylsulphonyl)phenyl)-3-phenylpyrazolo[5,1-b][1,3]oxazole]
237 to 240	CS(=O)(=O)c1ccc(-c2c(-c3ccc(F)cc3)c(=O)n3n2Cc2c(Cl)cccc2-3)cc1 [Example 65, 8-Chloro-2-(4-fluorophenyl)-1-(4-(methylsulphonyl)phenyl)-3H,9H-pyrazolo[1,2-a]indazol-3-one]
240 to 241	Cc1oc2c(-c3ccc(F)cc3)c(-c3ccc(S(C)(=O)=O)cc3)nn2c1-c1cccs1 [Example 44, 7-(4-Fluorophenyl)-3-(2-thienyl)-2-methyl-6-(4-(methylsulphonyl)phenyl)pyrazolo[5,1-b][1,3]oxazole]
186 to 189	CS(=O)(=O)c1ccc(-c2nn3c(C(F)(F)F)coc3c2-c2ccc(F)cc2)cc1 [Example 50, 7-(4-Fluorophenyl)-6-(4-(methylsulphonyl)phenyl)-3-(trifluoromethyl)pyrazolo[5,1-b][1,3]oxazole]
200 to 201	CS(=O)(=O)c1ccc(-c2nn3c4c(oc3c2-c2ccc(F)cc2)COCC4)cc1 [Example 52, 3-(4-Fluorophenyl)-2-(4-methylsulfonylphenyl)-7,8-dihydro-5H-pyrazolo[5,1-b]pyrano[4,3-d][1,3]oxazole]
151 to 154	CS(=O)(=O)c1ccc(-c2nn3c(-c4ccccc4)coc3c2-c2ccc(F)cc2)cc1 [Example 37, 7-(4-Fluorophenyl)-6-(4-(methylsulphonyl)phenyl)-3-phenylpyrazolo[5,1-b][1,3]oxazole]
177 to 179	CCc1coc2c(-c3ccc(F)cc3)c(-c3ccc(S(C)(=O)=O)cc3)nn12 [Example 61, 3-Ethyl-7-(4-fluorophenyl)-6-(4-(methylsulphonyl)phenyl)pyrazolo[5,1-b][1,3]oxazole]
198 to 200	CS(=O)(=O)c1ccc(-c2nn3c(c2-c2ccc(F)cc2)OCCC3)cc1 [Example 1, 3-(4-Fluorophenyl)-2-(4-(methylsulphonyl)phenyl)-6,7-dihydro-5H-pyrazolo[5,1-b][1,3]oxazine]
127 to 129	CC(=O)C(C)Oc1nn(C(C)C(C)=O)c(-c2ccc(S(C)(=O)=O)cc2)c1-c1ccc(F)cc1 (centres unmarked) [Example 17, 3-[4-(4-Fluorophenyl)-5-(4-methylsulfonylphenyl)-3-(1-methyl-2-oxopropoxy)-1H-pyrazol-1-yl]butan-2-one]
194 to 195	Cc1c(-c2cccc(C(F)(F)F)c2)oc2c(-c3ccc(F)cc3)c(-c3ccc(S(C)(=O)=O)cc3)nn12 [Example 46, 6-(4-(Methylsulphonyl)phenyl)-7-(4-fluorophenyl)-3-methyl-2-[3-(trifluoromethyl)phenyl]pyrazolo[5,1-b][1,3]oxazole]
205 to 208	CCc1coc2c(-c3ccc(S(C)(=O)=O)cc3)c(-c3ccc(F)cc3)nn12 [Example 76, 6-(4-Fluorophenyl)-7-(4-(methylsulphonyl)phenyl)-3-ethylpyrazolo[5,1-b][1,3]oxazole]
183 to 184	CS(=O)(=O)c1ccc(-c2nn3c4c(oc3c2-c2ccc(F)cc2)CCCC4)cc1 [Example 42, 3-(4-Fluorophenyl)-2-(4-(methylsulphonyl)phenyl)-5,6,7,8-tetrahydropyrazolo[5,1-b][1,3]benzoxazole]
235 to 237	NS(=O)(=O)c1ccc(-c2nn3c(-c4ccc(F)cc4)coc3c2-c2ccc(F)cc2)cc1 [Example 57, 4-[3,7-Bis(4-fluorophenyl)pyrazolo[5,1-b][1,3]oxazol-6-yl]benzenesulphonamide]

Structure (SMILES)	melting point [°C]
CC(C)(C)C(=O)COc1nn(CC#N)c(-c2ccc(S(C)(=O)=O)cc2)c1-c1ccc(F)cc1 [Example 28, 2-[3-(3,3-Dimethyl-2-oxobutoxy)-4-(4-fluorophenyl)-5-(4-(methylsulphonyl)phenyl)-1H-pyrazol-1-yl]acetonitrile]	156 to 159
CCC(=O)COc1nn(CC(=O)CC)c(-c2ccc(F)cc2)c1-c1ccc(S(C)(=O)=O)cc1 [Example 77, 1-[5-(4-Fluorophenyl)-4-(4-(methylsulphonyl)phenyl)-3-(2-oxobutoxy)-1H-pyrazol-1-yl]butan-2-one]	56 to 58
